Converted amounts (≈) assume the structure as drawn.
Tests used:
Format in all cases: functional
Haemophilus influenzae = experiment: Antibacterial activity against Haemophilus influenzae LCB0015 by two fold serial dilution method
Klebsiella pneumoniae = experiment: Antibacterial activity against Klebsiella pneumoniae LCB0014 by two fold serial dilution method
[1] = tested on: Staphylococcus epidermidis; experiment: Antibacterial activity against methicillin-resistant Staphylococcus epidermidis LCB0004 by two fold serial dilution method
[2] = tested on: Staphylococcus epidermidis; experiment: Antibacterial activity against Staphylococcus epidermidis LCB0003 by two fold serial dilution method
Staphylococcus aureus [3] = experiment: Antibacterial activity against methicillin-resistant Staphylococcus aureus LCB0002 by two fold serial dilution method
Escherichia coli [4] = experiment: Antibacterial activity against Escherichia coli LCB0012 by two fold serial dilution method
Enterococcus faecalis [5] = experiment: Antibacterial activity against vancomycin and Linezolid resistant Enterococcus faecalis LCB0007 by two fold serial dilution method
Pseudomonas aeruginosa = experiment: Antibacterial activity against Pseudomonas aeruginosa LCB0013 by two fold serial dilution method
Moraxella catarrhalis = experiment: Antibacterial activity against Moraxella catarrhalis LCB0016 by two fold serial dilution method
Staphylococcus aureus [6] = experiment: Antibacterial activity against Staphylococcus aureus LCB0001 by two fold serial dilution method
Escherichia coli [7] = experiment: Antibacterial activity against Escherichia coli LCB0011 by two fold serial dilution method
Enterococcus faecalis [8] = experiment: Antibacterial activity against vancomycin-resistant Enterococcus faecalis LCB0006 by two fold serial dilution method
Enterococcus faecium [9] = experiment: Antibacterial activity against Enterococcus faecium LCB0009 by two fold serial dilution method
Enterococcus faecalis [10] = experiment: Antibacterial activity against Enterococcus faecalis LCB0005 by two fold serial dilution method
Enterococcus faecium [11] = experiment: Antibacterial activity against vancomycin-resistant Enterococcus faecium LCB0008 by two fold serial dilution method
Escherichia coli [12] = experiment: Antibacterial activity against Escherichia coli LCB0010 by two fold serial dilution method

`CC(=O)NC[C@H]1CN(c2ccc(N3CCOCC3)c(F)c2)C(=O)O1` [LINEZOLID] gave an MIC90 (Haemophilus influenzae) of 16 µg/mL (≈ 47.4 µM), an MIC90 (Klebsiella pneumoniae) of over 128 µg/mL and an MIC90 [1] of 8 µg/mL (≈ 23.7 µM). It also gave an MIC90 [2] of 4 µg/mL (≈ 11.9 µM), an MIC90 (Staphylococcus aureus [3]) of 2 µg/mL (≈ 5.93 µM) and an MIC90 (Escherichia coli [4]) of 128 µg/mL (≈ 379 µM). The MIC90 (Enterococcus faecalis [5]) was 64 µg/mL (≈ 190 µM), the MIC90 (Pseudomonas aeruginosa) was over 128 µg/mL and the MIC90 (Moraxella catarrhalis) was 4 µg/mL (≈ 11.9 µM). The MIC90 (Staphylococcus aureus [6]) was 2 µg/mL (≈ 5.93 µM), the MIC90 (Escherichia coli [7]) was 16 µg/mL (≈ 47.4 µM) and the MIC90 (Enterococcus faecalis [8]) was 4 µg/mL (≈ 11.9 µM). It also gave an MIC90 (Enterococcus faecium [9]) of 4 µg/mL (≈ 11.9 µM), an MIC90 (Enterococcus faecalis [10]) of 4 µg/mL (≈ 11.9 µM) and an MIC90 (Enterococcus faecium [11]) of 2 µg/mL (≈ 5.93 µM). The MIC90 (Escherichia coli [12]) was over 128 µg/mL.
`N[C@@H]1[C@H]2CN(c3nc4c(cc3F)c(=O)c(C(=O)O)cn4-c3ccc(F)cc3F)C[C@@H]12` [TROVAFLOXACIN] gave an MIC90 (Haemophilus influenzae) of under 0.0625 µg/mL, an MIC90 (Klebsiella pneumoniae) of 0.125 µg/mL (≈ 0.3 µM) and an MIC90 [1] of under 0.0625 µg/mL. It also gave an MIC90 [2] of under 0.0625 µg/mL, an MIC90 (Staphylococcus aureus [3]) of 2 µg/mL (≈ 4.8 µM) and an MIC90 (Escherichia coli [4]) of under 0.0625 µg/mL. The MIC90 (Enterococcus faecalis [5]) was 16 µg/mL (≈ 38.4 µM), the MIC90 (Pseudomonas aeruginosa) was 0.5 µg/mL (≈ 1.2 µM) and the MIC90 (Moraxella catarrhalis) was under 0.0625 µg/mL. It also gave an MIC90 (Staphylococcus aureus [6]) of under 0.0625 µg/mL, an MIC90 (Escherichia coli [7]) of under 0.0625 µg/mL and an MIC90 (Enterococcus faecalis [8]) of 16 µg/mL (≈ 38.4 µM). For the same compound, the MIC90 (Enterococcus faecium [9]) was 32 µg/mL (≈ 76.9 µM), the MIC90 (Enterococcus faecalis [10]) was under 0.0625 µg/mL and the MIC90 (Enterococcus faecium [11]) was 128 µg/mL (≈ 307 µM). It also gave an MIC90 (Escherichia coli [12]) of under 0.0625 µg/mL.

— ChEMBL document CHEMBL1156319, “Synthesis, crystal and antibacterial studies of diversely functionalized tetrahydropyridin-4-ol” (2010)
